Assay results: patent US20220332799A1, “HERV INHIBITORS FOR USE IN TREATING TAUOPATHIES” (Deutsches Zentrum Für Neurodegenerative Erkrankungen E.V. …, priority 2019, published 2022)

How the values were obtained:
[1] = system: HEK Tau-FusionRed^sol cells expressing murine XPR1-HA; experiment: Tau aggregate induction in recipient cells by EVs from N2a s2E Tau-GFP^CBD donor cells; format: cell-based, human; settings: EVs from treated donors; recipients cultured in drug-containing medium, 3 d
Procedure: To examine this effect on Tau aggregate spreading, an N2a s2E cell clone stably propagating aggregated Tau-GFP^CBD was produced (FIG. 11a). […]. Cells and EVs were analyzed for the presence of aggregated Tau-GFP. Pronase-resistant Tau-GFP was found in both cell lysate and EVs (FIG. 2q). To inhibit MuERV gene product maturation, donor cells were treated with Amprenavir for three days. Donor cells and donor cell-derived EVs were subsequently exposed for three days to recipient HEK cells expressing soluble Tau-FusionRed and the murine XPR1 receptor variant required for MuERV Env interaction. Due to this long incubation time, the coculture and EV induction assays were performed in the presence of Amprenavir (FIG. 11b). […]
(§1) Recipient cells were cultured on CellCarrier-96 plates or 384 black microplates (PerkinElmer) at appropriate cell numbers for 1 h, and then treated with 5-10 μl of prepared samples (isolated EVs or recombinant NM fibrils). […] On average, a total of 3-4×10^4 cells per well and at least 3 wells per treatment were analyzed.
(§2) The treatment of cells with Amprenavir (10 μM; Santa Cruz) and DMSO was performed for 72 h in EV-depleted medium in T175 flasks. Afterwards, the total numbers of viable cells and the viability upon drug treatment were determined using the Vi-VELL™ XR Cell Viability Analyzer (Beckman Coulter). […]

N2a NM-GFP^sol cells = experiment: NM-GFP aggregate induction in recipient cells by EVs from donor clone N2a NM-HA^agg s2E; format: cell-based, mouse; settings: EVs isolated from donors treated with 10 μM for 3 days; no drug on recipients, 16 h
Procedure: To prepare EV-depleted medium, FCS was ultracentrifuged at 100,000×g for 20 h at 4° C. Medium supplemented with the EV-depleted FCS and antibiotics was subsequently filtered through […] and a 0.1 μM filter-sterilization devices (Millipore). For EV isolation, 2-4×10^6 cells were seeded in T175 flasks in 35 ml EV-depleted medium to reach confluence after 3 days. Cells and cell debris were pelleted by differential centrifugation (300×g, 10 min; 2,000×g, 20 min; 16,000×g, 30 min, 4° C.). The remaining supernatant (conditioned medium) was subjected to ultracentrifugation at 100,000×g for 1 h at 4° C. using rotors Ti45 or SW32Ti (Beckman Coulter). The pellet was rinsed in PBS and spun again using rotor SW55Ti at 100,000×g for 1 h at 4° C.
as §1, §2

CC(C)CN(C[C@@H](O)[C@H](Cc1ccccc1)NC(=O)O[C@H]1CCOC1)S(=O)(=O)c1ccc(N)cc1 [Amprenavir]
Tau-FusionRed aggregate induction by EVs [1]: also decreased Tau-FusionRed aggregate induction in murine XPR1 expressing recipient cells | EV-mediated aggregate induction in recipient cells (N2a NM-GFP^sol cells): basically abolished EV-mediated aggregate induction in recipient cells
